Patent US10168342B2, “Lipid probes and uses thereof” (THE SCRIPPS RESEARCH INSTITUTE, priority 2015, dated 2019)
Like-named read-outs stand apart in the source and are kept apart here.

Columns and labels:
[1] = target: T1, AEA-DA lipid probe targets in Neuro2a cells (Mus musculus, UniProt Q920A5)
T1 sequence (Q920A5 29-452): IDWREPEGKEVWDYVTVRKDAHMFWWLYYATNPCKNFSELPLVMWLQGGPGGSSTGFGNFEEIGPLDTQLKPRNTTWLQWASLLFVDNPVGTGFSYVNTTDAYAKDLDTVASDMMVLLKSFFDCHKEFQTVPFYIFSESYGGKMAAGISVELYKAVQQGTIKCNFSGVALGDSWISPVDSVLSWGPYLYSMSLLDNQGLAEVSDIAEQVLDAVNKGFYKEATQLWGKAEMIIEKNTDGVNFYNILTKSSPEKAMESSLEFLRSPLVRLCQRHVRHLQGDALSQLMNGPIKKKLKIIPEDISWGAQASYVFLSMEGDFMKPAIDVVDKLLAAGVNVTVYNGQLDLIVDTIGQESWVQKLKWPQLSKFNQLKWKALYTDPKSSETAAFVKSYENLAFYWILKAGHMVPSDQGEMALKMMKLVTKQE

[2] = target: T2, AEA-DA lipid probe targets in Neuro2a cells (Mus musculus, UniProt Q8BGC4)
T2 sequence (Q8BGC4 1-377): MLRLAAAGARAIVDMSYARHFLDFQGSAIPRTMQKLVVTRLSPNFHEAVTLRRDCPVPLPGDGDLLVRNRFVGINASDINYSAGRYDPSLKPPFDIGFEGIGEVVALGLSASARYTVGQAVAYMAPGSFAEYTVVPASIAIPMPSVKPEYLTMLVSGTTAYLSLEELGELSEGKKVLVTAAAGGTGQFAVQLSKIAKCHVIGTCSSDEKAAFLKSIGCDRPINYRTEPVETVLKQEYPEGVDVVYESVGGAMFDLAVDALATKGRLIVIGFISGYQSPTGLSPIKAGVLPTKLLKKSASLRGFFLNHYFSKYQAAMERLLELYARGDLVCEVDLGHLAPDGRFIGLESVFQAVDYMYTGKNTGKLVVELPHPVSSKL

[3] = target: T3, AEA-DA lipid probe targets in Neuro2a cells (Mus musculus, UniProt Q8C3X8)
T3 sequence (Q8C3X8 1-702): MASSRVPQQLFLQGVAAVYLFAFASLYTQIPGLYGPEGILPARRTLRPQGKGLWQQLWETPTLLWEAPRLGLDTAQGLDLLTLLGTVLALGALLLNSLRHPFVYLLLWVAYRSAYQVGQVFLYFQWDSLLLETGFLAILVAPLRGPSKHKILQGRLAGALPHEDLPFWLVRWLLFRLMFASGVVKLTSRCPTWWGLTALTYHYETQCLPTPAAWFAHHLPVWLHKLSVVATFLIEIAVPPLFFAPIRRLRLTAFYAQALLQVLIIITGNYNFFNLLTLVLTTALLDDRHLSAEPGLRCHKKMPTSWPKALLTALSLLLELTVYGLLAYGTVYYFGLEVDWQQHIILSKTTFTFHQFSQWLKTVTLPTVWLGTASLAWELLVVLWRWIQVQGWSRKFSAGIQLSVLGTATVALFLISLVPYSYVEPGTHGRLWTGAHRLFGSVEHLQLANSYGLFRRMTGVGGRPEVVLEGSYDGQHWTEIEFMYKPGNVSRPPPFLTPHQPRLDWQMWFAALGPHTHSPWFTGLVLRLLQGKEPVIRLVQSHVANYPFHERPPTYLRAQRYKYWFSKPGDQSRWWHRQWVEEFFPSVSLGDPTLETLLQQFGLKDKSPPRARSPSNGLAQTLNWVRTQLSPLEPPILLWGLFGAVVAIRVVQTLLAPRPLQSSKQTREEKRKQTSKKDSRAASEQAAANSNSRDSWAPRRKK

[4] = target: T4, AEA-DA lipid probe targets in Neuro2a cells (Mus musculus, UniProt Q8BSF4)
T4 sequence (Q8BSF4 50-406): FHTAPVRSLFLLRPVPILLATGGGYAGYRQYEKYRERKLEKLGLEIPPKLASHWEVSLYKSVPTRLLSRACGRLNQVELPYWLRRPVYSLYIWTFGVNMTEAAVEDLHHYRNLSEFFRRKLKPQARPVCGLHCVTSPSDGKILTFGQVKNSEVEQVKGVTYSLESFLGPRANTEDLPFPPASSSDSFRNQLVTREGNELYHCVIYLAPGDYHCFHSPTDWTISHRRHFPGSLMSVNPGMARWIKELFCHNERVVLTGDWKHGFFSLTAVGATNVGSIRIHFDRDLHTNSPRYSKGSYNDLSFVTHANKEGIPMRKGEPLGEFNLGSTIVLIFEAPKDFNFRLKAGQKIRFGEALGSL

Row | Structure (SMILES) | SILAC ratio Scpep1 ([1]; competitor 25 μM) | SILAC ratio, Zadh2 ([2]; competitor 25 μM) | SILAC ratio Lmf2 ([3]; competitor 25 μM) | SILAC ratio, Pisd ([4]; competitor 25 μM) | other results
1 | CCCCC/C=C\C/C=C\C/C=C\C/C=C\CCCC(=O)NCCO [AEA, anandamide, reference compound] | – | – | – | – | SILAC ratio Scpep1 ([1]; competitor 200 μM): 1.0; SILAC ratio, Zadh2 ([2]; competitor 200 μM): 4.8; SILAC ratio Lmf2 ([3]; competitor 200 μM): 1.9; SILAC ratio, Pisd ([4]; competitor 200 μM): 1.8
2 | O=C(/C=C/c1cccnc1)NCCCCC1CCN(C(=O)c2ccccc2)CC1 [FK-866, reference compound] | 1.2 | 12.6 | 1.2 | – | –
3 | CN1CCN(C(=O)c2c(-c3ccccc3)c3cc([N+](=O)[O-])ccc3n2C)CC1 [KML110, (1-Methyl-5-nitro-3-phenyl-1H-indol-2-yl)(4-methylpiperazin-1-yl)methanone] | 1.6 | 1.5 | 1.7 | 1.4 | –
4 | CN1CCN(C(=O)c2[nH]c3ccc([N+](=O)[O-])cc3c2-c2ccccc2)CC1 [MJN228, (4-Methylpiperazin-1-yl)(5-nitro-3-phenyl-1H-indol-2-yl)methanone] | 1.4 | 1.5 | 1.7 | 1.4 | SILAC ratio Scpep1 ([1]; competitor 10 μM): 1.2; SILAC ratio Scpep1 ([1]; competitor 50 μM): 1.5; SILAC ratio Scpep1 ([1]; competitor 100 μM): 1.9; SILAC ratio, Zadh2 ([2]; competitor 10 μM): 1.4; SILAC ratio, Zadh2 ([2]; competitor 50 μM): 2.3; SILAC ratio, Zadh2 ([2]; competitor 100 μM): 6.0; SILAC ratio Lmf2 ([3]; competitor 10 μM): 1.5; SILAC ratio Lmf2 ([3]; competitor 50 μM): 2.0; SILAC ratio Lmf2 ([3]; competitor 100 μM): 2.5
5 | C=CCN(C)CCCCCCOc1ccc(C(=O)c2ccc(Br)cc2)c(F)c1 [Ro 48-8071, reference compound] | 0.4 | 1.0 | 1.3 | 1.3 | –
